Reference: patent publication US11040027B2, “Protein kinase inhibitors for promoting liver regeneration or reducing or preventing hepatocyte death” (HEPAREGENIX GMBH, priority 2017, dated 2021)

Experiments:
BRaf = BRaf (Homo sapiens, UniProt P15056); assay: KINOMEscan competition binding assay, selectivity BRaf versus MKK4; details: Test conc. 0.1 μM; ratio of percent of control; N/E* per footnote
Protocol: The assay was performed by combining three components: DNA-tagged kinase; immobilized ligand; and a test compound. The ability of the test compound to compete with the immobilized ligand was measured via quantitative PCR of the DNA tag. The technology is described in detail in Fabian, M. A. et al. A small molecule-kinase interaction map for clinical kinase inhibitors. Nat. […] Nat.
The test compounds were provided as 10 mM stock solutions. The test solutions at indicated final concentrations were prepared at DiscoverX.

MEKK2 = target: T1, MEKK2 (Homo sapiens, UniProt Q9Y2U5); assay: Radiometric protein kinase assay, MEKK2; assay type: biochemical; details: substrate Casein, ATP 0.2 μM; read-out: MEKK2 (potency derived from IC50-values)
T1 construct: purchased ProQinase 0583-0000-1
T1 sequence (Q9Y2U5 1-619): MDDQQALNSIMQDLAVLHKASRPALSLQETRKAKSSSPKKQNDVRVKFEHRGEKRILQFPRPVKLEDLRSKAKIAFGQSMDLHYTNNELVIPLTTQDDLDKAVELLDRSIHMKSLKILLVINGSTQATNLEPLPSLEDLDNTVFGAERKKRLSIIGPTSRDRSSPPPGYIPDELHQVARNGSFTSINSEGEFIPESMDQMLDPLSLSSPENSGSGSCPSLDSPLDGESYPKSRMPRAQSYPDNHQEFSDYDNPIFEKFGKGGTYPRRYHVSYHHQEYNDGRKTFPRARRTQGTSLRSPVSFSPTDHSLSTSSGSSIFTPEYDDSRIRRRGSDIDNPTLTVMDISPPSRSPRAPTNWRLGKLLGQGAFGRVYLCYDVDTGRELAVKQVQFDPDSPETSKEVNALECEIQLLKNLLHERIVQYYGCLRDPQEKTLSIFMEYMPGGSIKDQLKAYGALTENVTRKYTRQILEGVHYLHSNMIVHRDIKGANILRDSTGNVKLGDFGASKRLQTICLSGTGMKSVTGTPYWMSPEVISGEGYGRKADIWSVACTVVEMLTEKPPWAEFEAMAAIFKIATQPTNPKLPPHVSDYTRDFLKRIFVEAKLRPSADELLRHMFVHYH
Protocol: (§1) A radiometric protein kinase assay was used for measuring the kinase activity of the respective protein kinases. All kinase assays were performed in 96-well polypropylene plates. After the reactions were stopped, the assay mixtures were transferred to 96-well MSFC filter-plates (Millipore). The reaction mix was passed through the filter membrane by aspiration, the membrane was washed 3 times with 150 mM H3PO4, once with ethanol, dried and liquid scintillation cocktail was added. Radioactivity was determined by counting of the samples in a Microbeta multiwell scintillation counter (Wallac).
(§2) b) Single Kinases • 20 μl standard assay buffer • 5 μl compound in 10% DMSO • 20 μl enzyme-substrate mix • 10 μl of substrate solution
(§3) The reaction cocktails were incubated at 30° C. for 30 minutes.

MKK7 = target: T2, MKK7 (Homo sapiens, UniProt O14733); assay: KINOMEscan competition binding assay, selectivity MKK7 versus MKK4; details: Test conc. 0.1 μM; ratio of percent of control; N/E* per footnote
T2 sequence (O14733 1-419): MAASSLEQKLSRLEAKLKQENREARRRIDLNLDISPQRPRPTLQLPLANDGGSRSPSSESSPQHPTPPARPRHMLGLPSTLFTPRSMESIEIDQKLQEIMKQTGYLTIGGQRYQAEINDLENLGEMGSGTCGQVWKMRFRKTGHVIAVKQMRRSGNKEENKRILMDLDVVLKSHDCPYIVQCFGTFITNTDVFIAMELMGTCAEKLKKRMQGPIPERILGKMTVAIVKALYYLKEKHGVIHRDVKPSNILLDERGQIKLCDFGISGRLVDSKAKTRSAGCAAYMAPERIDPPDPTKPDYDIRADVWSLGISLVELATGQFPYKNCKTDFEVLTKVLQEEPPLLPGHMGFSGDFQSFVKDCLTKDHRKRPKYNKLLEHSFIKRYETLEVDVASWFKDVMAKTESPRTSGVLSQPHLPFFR
Protocol: (§4) For investigation of the affinity to MKK4, MKK7 and JNK1, the kinases were produced in HEK-293 cells and subsequently tagged with DNA for qPCR detection. […] The liganded beads were blocked with excess biotin and washed with blocking buffer (SEABLOCK™ (Pierce), 1% BSA, 0.05% TWEEN®20, 1 mM DTT) to remove unbound ligand and to reduce nonspecific binding. […] All reactions were performed in polystyrene 96-well plates in a final volume of 0.135 mL. […] The kinase concentration in the eluates was measured by qPCR.

JNK1 = JNK1 (Homo sapiens, UniProt P45983); assay: KINOMEscan competition binding assay, selectivity JNK1 versus MKK4; details: ratio of percent of control
Chain of JNK1 (P45983 1-384 isoform P45983-2): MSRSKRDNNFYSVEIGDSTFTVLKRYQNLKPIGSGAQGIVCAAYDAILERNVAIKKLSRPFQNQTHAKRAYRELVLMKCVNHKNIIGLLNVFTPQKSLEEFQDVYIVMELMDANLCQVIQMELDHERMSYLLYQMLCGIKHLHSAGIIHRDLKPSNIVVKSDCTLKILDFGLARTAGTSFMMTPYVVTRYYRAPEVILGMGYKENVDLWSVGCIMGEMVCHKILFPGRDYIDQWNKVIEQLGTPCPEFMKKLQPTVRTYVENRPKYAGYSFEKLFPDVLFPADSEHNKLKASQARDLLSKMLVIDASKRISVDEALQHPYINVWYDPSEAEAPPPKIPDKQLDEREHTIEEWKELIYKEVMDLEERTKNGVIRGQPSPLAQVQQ
Protocol: as §4

MKK4 active = target: T3, MKK4 active (Homo sapiens, UniProt P45985); assay: Radiometric protein kinase assay, MKK4 active; assay type: biochemical; details: substrate JNK1 KRKR, ATP 0.2 μM, read-out: MKK4 (potency derived from IC50-values)
T3 construct: purchased ProQinase 0948-0000-1
T3 sequence (P45985 1-399): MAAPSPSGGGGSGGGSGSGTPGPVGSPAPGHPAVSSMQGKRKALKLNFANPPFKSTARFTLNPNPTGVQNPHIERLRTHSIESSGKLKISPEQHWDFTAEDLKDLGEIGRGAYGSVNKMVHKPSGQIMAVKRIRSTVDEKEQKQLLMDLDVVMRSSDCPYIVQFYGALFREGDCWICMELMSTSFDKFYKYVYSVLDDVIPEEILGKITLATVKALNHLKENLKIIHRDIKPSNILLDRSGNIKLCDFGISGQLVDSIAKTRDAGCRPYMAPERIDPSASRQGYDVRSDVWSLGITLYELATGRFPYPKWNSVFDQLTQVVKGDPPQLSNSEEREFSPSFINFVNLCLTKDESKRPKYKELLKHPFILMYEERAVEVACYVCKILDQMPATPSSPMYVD
Protocol: as §1, §2, §3

MKK4 = target: T4, MKK4 (Homo sapiens, UniProt P45985); assay: KINOMEscan competition binding assay, MKK4; details: read-out: Potency MKK4 (derived from % of control values, PoC)
T4 sequence (P45985 84-399): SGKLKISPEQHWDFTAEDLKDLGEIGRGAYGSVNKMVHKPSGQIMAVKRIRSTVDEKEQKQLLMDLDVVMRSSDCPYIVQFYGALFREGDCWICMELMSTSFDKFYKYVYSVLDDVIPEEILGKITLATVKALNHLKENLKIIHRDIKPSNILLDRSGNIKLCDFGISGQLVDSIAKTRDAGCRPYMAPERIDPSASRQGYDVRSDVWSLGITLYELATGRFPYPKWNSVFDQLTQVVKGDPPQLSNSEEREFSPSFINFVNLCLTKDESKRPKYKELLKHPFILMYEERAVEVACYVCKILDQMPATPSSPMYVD
Protocol: as §4

[1] = Test conc 0.1 μM, N/E* = PoC for JNK1 = 100

Chain of BRaf (P15056 whole entry): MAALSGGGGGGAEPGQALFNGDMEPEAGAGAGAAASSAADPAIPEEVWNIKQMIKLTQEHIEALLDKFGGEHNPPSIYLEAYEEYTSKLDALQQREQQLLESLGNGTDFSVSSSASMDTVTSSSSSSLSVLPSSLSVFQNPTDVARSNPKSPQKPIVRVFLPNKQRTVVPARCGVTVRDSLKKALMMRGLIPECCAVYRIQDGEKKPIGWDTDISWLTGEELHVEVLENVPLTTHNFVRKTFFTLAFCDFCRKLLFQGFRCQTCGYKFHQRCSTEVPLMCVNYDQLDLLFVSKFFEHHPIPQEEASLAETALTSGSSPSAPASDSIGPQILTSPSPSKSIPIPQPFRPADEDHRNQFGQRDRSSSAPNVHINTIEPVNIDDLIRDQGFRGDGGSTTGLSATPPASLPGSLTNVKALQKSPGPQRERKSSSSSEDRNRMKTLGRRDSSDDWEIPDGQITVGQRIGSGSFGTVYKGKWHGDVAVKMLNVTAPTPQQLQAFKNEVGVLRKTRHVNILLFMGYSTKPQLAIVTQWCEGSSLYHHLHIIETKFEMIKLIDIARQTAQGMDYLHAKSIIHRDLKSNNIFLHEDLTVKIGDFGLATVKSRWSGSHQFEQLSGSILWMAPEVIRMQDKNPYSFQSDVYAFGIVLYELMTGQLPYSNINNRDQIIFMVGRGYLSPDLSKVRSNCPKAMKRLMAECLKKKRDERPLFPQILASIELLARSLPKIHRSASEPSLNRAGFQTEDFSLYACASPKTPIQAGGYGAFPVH

| Compound | Selectivity BRaf/MKK4 (BRaf) | IC50 (MEKK2) [µM] | Selectivity MKK7/MKK4 (MKK7) | Selectivity JNK1/MKK4 (JNK1; Test conc 10 μM) | IC50 (MKK4 active) [µM] | remaining binding at 0.1 µM (MKK4) [%] | Selectivity JNK1/MKK4 (JNK1; [1]) | remaining binding at 1 µM (MKK4) [%] |
| --- | --- | --- | --- | --- | --- | --- | --- | --- |
| CCCS(=O)(=O)Nc1ccc(F)c(C(=O)c2c[nH]c3ncc(-c4ccc(C(C)C)cc4)cc23)c1F [Example 7, N-(2,4-Difluoro-3-(5-(4-isopropylphenyl)-1H-pyrrolo[2,3-b]pyridine-3-carbonyl)phenyl)propane-1-sulfonamide] | 0.9 | > 10 | 3.0 | >100 | 0.5 to 1 | > 30 | – | – |
| CCCS(=O)(=O)Nc1ccc(F)c(C(=O)c2c[nH]c3ncc(-c4ccc5c(c4)OCO5)cc23)c1F [Example 10, N-(3-(5-(Benzo[d][1,3]dioxol-5-yl)-1H-pyrrolo[2,3-b]pyridine-3-carbonyl)-2,4-difluorophenyl)propane-1-sulfonamide] | 4.2 | > 10 | 270 | >100 | > 10 | < 10 | – | – |
| CCCS(=O)(=O)Nc1ccc(F)c(C(=O)c2c[nH]c3ncc(-c4cccc(N)c4)cc23)c1F [Example 19, N-(3-(5-(3-Aminophenyl)-1H-pyrrolo[2,3-b]pyridine-3-carbonyl)-2,4-difluorophenyl)propane-1-sulfonamide] | – | 1 to 10 | – | – | – | – | – | – |
| COCCS(=O)(=O)Nc1ccc(F)c(C(=O)c2c[nH]c3ncc(-c4ccc(Cl)cc4)cc23)c1F [Example 32, N-(3-(5-(4-Chlorophenyl)-1H-pyrrolo[2,3-b]pyridine-3-carbonyl)-2,4-difluorophenyl)-2-methoxyethane-1-sulfonamide] | – | > 10 | – | – | – | – | – | – |
| CCCS(=O)(=O)Nc1ccc(F)c(C(=O)c2c[nH]c3ncc(-c4ccc(OC)cc4Cl)cc23)c1F [Example 39, N-(3-(5-(2-Chloro-4-methoxyphenyl)-1H-pyrrolo[2,3-b]pyridine-3-carbonyl)-2,4-difluorophenyl)propane-1-sulfonamide] | – | 1 to 10 | – | – | – | – | – | – |
| CCCS(=O)(=O)Nc1ccc(F)c(C(=O)c2c[nH]c3ncc(-c4cc5c(cc4Cl)OCO5)cc23)c1F [Example 43, N-(3-(5-(6-Chlorobenzo[d][1,3]dioxol-5-yl)-1H-pyrrolo[2,3-b]pyridine-3-carbonyl)-2,4-difluorophenyl)propane-1-sulfonamide] | 7.7 | 1 to 10 | 9.1 | – | < 0.5 | – | N/E* (PoC for JNK1 = 100) | – |
| CCCS(=O)(=O)Nc1ccc(F)c(C(=O)c2c[nH]c3ncc(-c4ccc(Cl)cc4)cc23)c1Cl [Example 86, N-(2-chloro-3-(5-(4-chlorophenyl)-1H-pyrrolo[2,3-b]pyridine-3-carbonyl)-4-fluorophenyl)propane-1-sulfonamide] | – | > 10 | – | – | 1 to 10 | – | – | – |
| CCCS(=O)(=O)Nc1ccc(F)c(C(=O)c2c[nH]c3ncc(-c4ccc(OC5CCCC5)cc4Cl)cc23)c1F [Example 99, N-(3-(5-(2-chloro-4-(cyclopentyl-oxy)phenyl)-1H-pyrrolo[2,3-b]pyridine-3-carbonyl)-2,4-difluorophenyl)propane-1-sulfonamide] | 1.9 | – | 2.0 | – | – | > 30 | 2.0 | – |
| CCCS(=O)(=O)Nc1ccc(F)c(C(=O)c2c[nH]c3ncc(-c4ccc(OCC5CC5)cc4Cl)cc23)c1F [Example 100, N-(3-(5-(2-chloro-4-(cyclopropyl-methoxy)phenyl)-1H-pyrrolo[2,3-b]pyridine-3-carbonyl)-2,4-difluorophenyl)propane-1-sulfonamide] | 17 | – | N/E* (PoC for JNK1 = 100) | – | – | > 30 | 2.2 | – |
| CCCS(=O)(=O)Nc1ccc(F)c(C(=O)c2c[nH]c3ncc(-c4ccccc4)cc23)c1F [Example 101, N-(2,4-difluoro-3-(5-phenyl-1H-pyrrolo[2,3-b]pyridine-3-carbonyl)phenyl)propane-1-sulfonamide] | 7.2 | – | N/E* (PoC for JNK1 = 100) | – | – | < 10 | 28 | – |
| CCCS(=O)(=O)Nc1ccc(F)c(C(=O)c2c[nH]c3ncc(-c4ccc(OCOC)cc4Cl)cc23)c1F [Example 102, N-(3-(5-(2-chloro-4-(methoxymethoxy)phenyl)-1H-pyrrolo[2,3-b]pyridine-3-carbonyl)-2,4-difluorophenyl)propane-1-sulfonamide] | 17 | – | N/E* (PoC for JNK1 = 100) | – | – | < 10 | N/E* (PoC for JNK1 = 100) | – |
| O=C(c1c(F)ccc(NS(=O)(=O)CCc2ccccc2)c1F)c1c[nH]c2ncc(-c3ccc(Cl)cc3)cc12 [Example 103, N-(3-(5-(4-chlorophenyl)-1H-pyrrolo[2,3-b]pyridine-3-carbonyl)-2,4-difluorophenyl)-2-phenylethane-1-sulfonamide] | – | < 0.5 | – | – | – | – | – | – |
| CCCS(=O)(=O)Nc1ccc(F)c(C2(c3c[nH]c4ncc(-c5ccc(Cl)cc5)cc34)OCCO2)c1F [Example 104, N-(3-(2-(5-(4-chlorophenyl)-1H-pyrrolo[2,3-b]pyridin-3-yl)-1,3-dioxolan-2-yl)-2,4-difluorophenyl)propane-1-sulfonamide] | – | > 10 | – | – | – | – | – | – |
| CCCS(=O)(=O)Nc1nc(C(=O)c2c[nH]c3ncc(-c4ccc(Cl)cc4)cc23)cs1 [Example 111, N-(4-(5-(4-chlorophenyl)-1H-pyrrolo[2,3-b]pyridine-3-carbonyl)thiazol-2-yl)propane-1-sulfonamide] | N/E* (PoC for JNK1 = 100) | – | <1 | – | – | – | N/E* (PoC for JNK1 = 100) | > 30 |
| CCCS(=N)(=O)Nc1ccc(F)c(C(=O)c2c[nH]c3ncc(-c4ccc(Cl)cc4)cc23)c1F (stereo not shown) [Example 112, N-(3-(5-(4-chlorophenyl)-1H-pyrrolo[2,3-b]pyridine-3-carbonyl)-2,4-difluorophenyl)propane-1-sulfonimidamide] | – | > 10 | – | – | 1 to 10 | – | – | – |
